Laboratory results taken from patent publication US12102638B2 (Urovant Sciences GmbH, priority 2017, dated 2024).
Where “and” joins values, the source holds several entries; their conditions need not be identical. Equal entries are not always repeated. Where two headings read alike, the source gives them in different places.

What was measured:
β2-AR = β2-AR (Homo sapiens, UniProt P07550); test: competition binding assay, membranes with recombinant β2-AR
[1] = effect of food on oral absorption (single and multiple dose); format: in vivo, human; conditions: for mean AUC0-24 with food compared to fasted state / mean Cmax with food compared to fasted state: 150 mg multiple oral doses, middle-aged and elderly females
β1-AR = molecular target: T1, β1-AR (Homo sapiens, UniProt P08588); test: competition binding assay, membranes with recombinant β1-AR
T1 construct: expressed in transfected cells; membranes used

[2] = dose-Cmax and dose-AUC models / log-log regression and simulations from Phase 1 data; design: species or system human
Procedure: In order to contextualize PK parameters of a 75 mg dose, dose-Cmax and dose-AUC models were created using data from Phase 1 studies.

[3] = human, in vivo
[4] = drug interaction study of vibegron 75 mg and rifampin; conditions: for CL/F, geometric mean / V/F, geometric mean: single 75 mg
[5] = tested on: patients with overactive bladder
Description: A placebo group was included in the main study, and a group that received tolterodine monotherapy was included in the main study and in the extension.

healthy subjects [6] = test: thorough QT single oral dose study; format: in vivo, human
healthy subjects [7] = tested on: healthy subjects
Description: Safety data from 16 Phase 1 studies, which include 15 completed Phase 1 studies and 1 study that was terminated early (this study was terminated for reasons unrelated to efficacy or safety) was collected.

[8] = in vivo
[9] = single-dose PK in patients with moderate hepatic impairment; format: in vivo, human; conditions: single 100 mg
human plasma proteins = test: plasma protein binding; format: in vitro ADME
healthy subjects [10] = test: maximum MA4 heart rate in multiple-dose Phase 1 study; format: in vivo, human; conditions: Day 14
Procedure: More intensive assessments of heart rate and blood pressure were performed in healthy volunteers in several Phase 1 studies. […] Doses ranged from 25 to 400 mg once daily for 7 to 28 days depending on the cohort. Least squares mean and 90% confidence intervals of maximum change from baseline in moving average of heart rate over 4 hours postdose (MA4 HR) are presented in Table 17.

[11] = single-dose PK in patients with renal impairment; format: in vivo, human; conditions: for CL/F, geometric LS mean / Fe[urine]48 hr, geometric mean: single 100 mg
Description: The relationship between clearance and renal function was modeled using linear regression.

[12] = relative bioequivalence of aqueous and non-aqueous tablets; format: in vivo, human; conditions: 50 mg
Description: An open-label, single-dose, randomized, two-period, two-treatment, two-sequence, crossover Phase 1 study evaluated the relative bioequivalence of two types of tablets with slightly different composition: aqueous tablet (test) and non-aqueous tablet (reference).

[13] = drug interaction studies: effect of co-administered medication on vibegron PK; format: in vivo, human
Description: However, these interactions are not expected to be clinically significant.

[14] = 150 mg multiple doses, middle-aged females, Day 14
[15] = single 50 mg, Japanese young males
[16] = single 50 mg, non-Japanese young males
[17] = Healthy Matched Control Subjects
[18] = multiple doses of 240 mg or 180 mg diltiazem

T1 sequence (P08588 whole entry): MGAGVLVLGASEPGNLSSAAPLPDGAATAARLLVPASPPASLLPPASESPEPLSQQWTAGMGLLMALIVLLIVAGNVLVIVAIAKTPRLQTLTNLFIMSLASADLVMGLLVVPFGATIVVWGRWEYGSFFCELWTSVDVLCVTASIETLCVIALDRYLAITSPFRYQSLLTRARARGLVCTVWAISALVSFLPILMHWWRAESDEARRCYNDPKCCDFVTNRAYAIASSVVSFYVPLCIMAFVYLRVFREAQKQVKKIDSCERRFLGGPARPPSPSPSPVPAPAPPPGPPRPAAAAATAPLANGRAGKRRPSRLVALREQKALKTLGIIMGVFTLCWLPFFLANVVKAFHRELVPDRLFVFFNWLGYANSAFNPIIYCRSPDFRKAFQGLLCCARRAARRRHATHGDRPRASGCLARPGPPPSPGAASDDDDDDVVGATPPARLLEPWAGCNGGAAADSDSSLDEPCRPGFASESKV
β2-AR, sequence (P07550 whole entry): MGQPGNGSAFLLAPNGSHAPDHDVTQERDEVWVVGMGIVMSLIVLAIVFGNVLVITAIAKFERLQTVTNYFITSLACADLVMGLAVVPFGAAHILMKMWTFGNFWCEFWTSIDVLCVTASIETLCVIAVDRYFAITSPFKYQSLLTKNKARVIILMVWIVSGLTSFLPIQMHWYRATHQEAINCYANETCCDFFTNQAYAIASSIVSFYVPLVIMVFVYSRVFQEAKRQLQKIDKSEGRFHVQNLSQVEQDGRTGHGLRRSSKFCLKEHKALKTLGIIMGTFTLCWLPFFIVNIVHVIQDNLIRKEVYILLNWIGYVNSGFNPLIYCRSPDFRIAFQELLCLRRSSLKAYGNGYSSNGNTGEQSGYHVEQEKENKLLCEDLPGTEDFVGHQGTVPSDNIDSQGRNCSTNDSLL

## O=C(Nc1ccc(C[C@@H]2CC[C@H]([C@H](O)c3ccccc3)N2)cc1)[C@@H]1CCc2nccc(=O)n21 [vibegron, (6S)—N-[4-[[(2S,5R)-5-[(R)-hydroxy(phenyl)methyl]pyrrolidin-2-yl]methyl]phenyl]-4-oxo-7,8-dihydro-6H-pyrrolo[1,2-a]pyrimidine-6-carboxamide]
β2-AR
  binding to β2-AR: does not bind
[1]; [14]
  reduction in mean AUC0-24hr with food vs fasted: 20%
  reduction in mean Cmax with food vs fasted: 47%
[1]; Day 1
  mean AUC0-24 with food compared to fasted state: ~42%
  mean Cmax with food compared to fasted state: 59%
[1]; Day 14
  mean AUC0-24 with food compared to fasted state: ~20%
  mean Cmax with food compared to fasted state: 43%
[1]; multiple dose 150 mg, day 14, Non-Japanese middle-aged females, Fasted
  Ctrough: 62.7 ± 12.4 ng/mL
[1]; [15]
  reduction in AUC0-inf with standard Japanese breakfast: 37%
  reduction in Cmax with standard Japanese breakfast: 52%
[1]; [16]
  delay in Tmax with high-fat meal vs fasted: ~1 h
  reduction in AUC0-inf with high-fat meal vs fasted: 46%
  reduction in Cmax with high-fat meal vs fasted: 67%
β1-AR
  binding to β1-AR: does not bind
[2]
  AUC of 75 mg lower than 200 mg single dose: ~2 fold
  AUC of 75 mg lower than 400 mg single dose: ~6 fold
  Cmax of 75 mg lower than 200 mg single dose: approximately 3.3 fold
  Cmax of 75 mg lower than 400 mg single dose: ~9.2 fold
  increase in Cmax on increase in dose from 50 to 100 mg: ~3 fold
  reduction in Cmax on decreasing the dose from 100 mg to 75 mg: ~40%
[3]
  dose recovered in feces: approximately 59%
  dose recovered in urine: ~20%
[4]; healthy male and female subjects
  tolerability of vibegron and rifampin: well tolerated
[4]; Vibegron + Rifampin 600 mg QD
  CL/F, geometric mean: 57.3 L/h
  V/F, geometric mean: 6140 L
[4]; Vibegron alone
  CL/F, geometric mean: 57.2 L/h
  V/F, geometric mean: 6930 L
[4]; vibegron 75 mg and rifampin 600 mg QD
  subjects with an AE related to study drug: 15%
[5]; Vibegron 3 mg, N = 144, first 12 weeks
  Accidental overdose, %: (2.1) %
[5]; Vibegron 15 mg, N = 134, first 12 weeks
  Accidental overdose, %: (4.5) %
[5]; Vibegron 50 mg, N = 148, first 12 weeks
  Accidental overdose, %: (2.7) %
[5]; Vibegron 100 mg, N = 261, first 12 weeks
  Accidental overdose, %: (4.2) %
[5]; human, in vivo
  frequency of injuries: 0.9%
Healthy subjects [6]; single 200 mg
  AUC, mean ± SD: 2430 ± 974 ng·h/mL
  Maximum Mean Placebo Corrected Change from Baseline Diastolic BP: 2.42 mmHg
  Maximum Mean Placebo Corrected Change from Baseline RR interval: -84.36 ms
  Maximum Mean Placebo Corrected Change from Baseline Systolic BP: 2.20 mmHg
Healthy subjects [6]; single 200 mg and 400 mg
  upper limits of the 90% CIs of all QTcF mean differences from placebo: < 10 ms
Healthy subjects [6]; single 200 mg, 0.5 hour
  QTcF LS mean difference from placebo: 2.90 ms
  QTcF change from baseline, LS mean: 1.90 ms
Healthy subjects [6]; single 200 mg, 1 hour
  QTcF change from baseline, LS mean: 4.87 ms
Healthy subjects [6]; single 200 mg, 1 hour (maximum)
  QTcF LS mean difference from placebo: 4.98 (3.07, 6.88) msec and 4.98 msec
Healthy subjects [6]; single 200 mg, 2 hour
  QTcF LS mean difference from placebo: 2.14 ms
  QTcF change from baseline, LS mean: 2.06 ms
Healthy subjects [6]; single 200 mg, 3 hour
  QTcF LS mean difference from placebo: 0.40 ms
  QTcF change from baseline, LS mean: 1.14 ms
Healthy subjects [6]; single 200 mg, 4 hour
  QTcF LS mean difference from placebo: -0.83 ms
  QTcF change from baseline, LS mean: -0.40 ms
Healthy subjects [6]; single 200 mg, 6 hour
  QTcF LS mean difference from placebo: -1.26 ms
  QTcF change from baseline, LS mean: -6.89 ms
Healthy subjects [6]; single 200 mg, 8 hour
  QTcF LS mean difference from placebo: -1.24 ms
  QTcF change from baseline, LS mean: -9.59 ms
Healthy subjects [6]; single 200 mg, 10 hour
  QTcF LS mean difference from placebo: -2.67 ms
  QTcF change from baseline, LS mean: -8.82 ms
Healthy subjects [6]; single 200 mg, 12 hour
  QTcF LS mean difference from placebo: -3.72 ms
  QTcF change from baseline, LS mean: -6.82 ms
Healthy subjects [6]; single 200 mg, 23.5 hour
  QTcF LS mean difference from placebo: 0.38 ms
  QTcF change from baseline, LS mean: -2.15 ms
Healthy subjects [6]; single 400 mg
  AUC, mean ± SD: 6800 ± 2300 ng·h/mL
  Maximum Mean Placebo Corrected Change from Baseline Diastolic BP: 3.99 mmHg
  Maximum Mean Placebo Corrected Change from Baseline RR interval: -162.45 ms
  Maximum Mean Placebo Corrected Change from Baseline Systolic BP: 3.97 mmHg
Healthy subjects [6]; single 400 mg, 0.5 hour
  QTcF LS mean difference from placebo: 3.37 ms
  QTcF change from baseline, LS mean: 2.37 ms
Healthy subjects [6]; single 400 mg, 1 hour
  QTcF change from baseline, LS mean: 4.49 ms
Healthy subjects [6]; single 400 mg, 1 hour (maximum)
  QTcF LS mean difference from placebo: 4.60 (2.71, 6.48) msec and 4.60 msec
Healthy subjects [6]; single 400 mg, 2 hour
  QTcF LS mean difference from placebo: 0.81 ms
  QTcF change from baseline, LS mean: 0.73 ms
Healthy subjects [6]; single 400 mg, 3 hour
  QTcF LS mean difference from placebo: -1.04 ms
  QTcF change from baseline, LS mean: -0.30 ms
Healthy subjects [6]; single 400 mg, 4 hour
  QTcF LS mean difference from placebo: -2.96 ms
  QTcF change from baseline, LS mean: -2.53 ms
Healthy subjects [6]; single 400 mg, 6 hour
  QTcF LS mean difference from placebo: -2.70 ms
  QTcF change from baseline, LS mean: -8.33 ms
Healthy subjects [6]; single 400 mg, 8 hour
  QTcF LS mean difference from placebo: -3.24 ms
  QTcF change from baseline, LS mean: -11.60 ms
Healthy subjects [6]; single 400 mg, 10 hour
  QTcF LS mean difference from placebo: -4.14 ms
  QTcF change from baseline, LS mean: -10.29 ms
Healthy subjects [6]; single 400 mg, 12 hour
  QTcF LS mean difference from placebo: -4.00 ms
  QTcF change from baseline, LS mean: -7.10 ms
Healthy subjects [6]; single 400 mg, 23.5 hour
  QTcF LS mean difference from placebo: -0.34 ms
  QTcF change from baseline, LS mean: -2.87 ms
Healthy subjects [6]; thorough QT study
  effect on QTc or blood pressure: no clinically meaningful effect on QTc or blood pressure
Healthy subjects [7]; Phase 1 multiple dose studies
  postural dizziness, dose relation: appeared to increase at doses ≥100 mg
Healthy subjects [7]; Phase 1 program
  treatment-emergent serious adverse events (SAEs) or deaths: no treatment-emergent serious adverse events (SAEs) or deaths reported
Healthy subjects [7]; Phase 1 studies
  incidence of AE orthostatic hypotension with symptoms, dose relation: higher at vibegron doses greater than 150 mg
Healthy subjects [7]; preliminary Phase 1 safety data
  laboratory safety parameters and ECG parameters: no clinically meaningful changes
Healthy subjects [7]; single doses 2 to 600 mg, multiple doses 25 to 400 mg up to 28 days
  tolerability across the Phase 1 program: generally well tolerated
Healthy subjects [7]; vibegron 100 mg, subjects with essential hypertension
  orthostatic AEs on coadministration with metoprolol or amlodipine: no occurrences of orthostatic AEs
[8]
  severe TEAEs, SAEs or deaths: no severe TEAEs, SAEs or deaths
[9]; [17]
  CL/F, geometric mean: 68.3 L/h
[9]; Moderate Hepatic Impairment
  CL/F, geometric mean: 56.0 L/h
Human plasma proteins
  bound to human plasma proteins: approximately 49%
  unbound in plasma: 49%
Healthy subjects [10]; 25 mg once daily
  Maximum MA4 HR change from baseline, LS mean: 1.47 bpm
  Maximum MA4 HR, Difference from Placebo: −1.60 bpm
Healthy subjects [10]; 50 mg once daily
  Maximum MA4 HR change from baseline, LS mean: 1.50 bpm
  Maximum MA4 HR, Difference from Placebo: −1.57 bpm
Healthy subjects [10]; 100 mg once daily
  Maximum MA4 HR change from baseline, LS mean: 3.28 bpm
Healthy subjects [10]; 150 mg once daily
  Maximum MA4 HR change from baseline, LS mean: 3.17 bpm
  Maximum MA4 HR, Difference from Placebo: 0.10 bpm
Healthy subjects [10]; 200 mg once daily
  Maximum MA4 HR change from baseline, LS mean: 5.67 bpm
  Maximum MA4 HR, Difference from Placebo: 2.60 bpm
Healthy subjects [10]; 300 mg once daily
  Maximum MA4 HR change from baseline, LS mean: 9.06 bpm
  Maximum MA4 HR, Difference from Placebo: 5.98 bpm
Healthy subjects [10]; 400 mg once daily
  Maximum MA4 HR change from baseline, LS mean: 10.33 bpm
  Maximum MA4 HR, Difference from Placebo: 7.26 bpm
[11]; mild renal impairment
  AUC0-inf higher compared to healthy matched control: 49%
  CLR reduced compared to healthy matched control: 39%
  Cmax higher compared to healthy matched control: 96%
[11]; moderate renal impairment
  AUC0-inf higher compared to healthy matched control: 106%
  CLR reduced compared to healthy matched control: 65%
  Cmax higher compared to healthy matched control: 68%
  mean increase in AUC compared to subjects with normal renal function: 1.6 fold
[11]; severe renal impairment
  AUC0-inf higher compared to healthy matched control: 83%
  CLR reduced compared to healthy matched control: 82%
  Cmax higher compared to healthy matched control: 42%
[11]; [17]
  CL/F, geometric LS mean: 64.9 L/h
  Fe[urine]48 hr, geometric mean: 7.9%
[11]; Mild Renal Impairment
  CL/F, geometric LS mean: 43.6 L/h
  Fe[urine]48 hr, geometric mean: 8.5%
[11]; Moderate Renal Impairment
  CL/F, geometric LS mean: 31.5 L/h
  Fe[urine]48 hr, geometric mean: 5.5%
[11]; Severe Renal Impairment
  CL/F, geometric LS mean: 35.5 L/h
  Fe[urine]48 hr, geometric mean: 2.1%
[11]; slope of linear regression
  CL/F increase per one mL/min/1.73 m^2 increase in eGFR: ~0.8%
[12]
  AUC0-inf GMR test to reference tablet: 100.2%
  Cmax GMR test to reference tablet: 107.7%
[13]; in vivo
  effect of Tolterodine ER 4 mg on the pharmacokinetics of vibegron: no effect
[13]; [18]
  GM vibegron AUC0-inf increase: 63%
  GM vibegron Cmax increase: 68%
